This note sets out measurements from patent US20080045498A1, “[…] INHIBITORS” (Genelabs Technologies, Inc., priority 2006, published 2008).

The inhibition is how much of the control response was suppressed.

The experiment has as its system HCV RNA dependent RNA polymerase. The experiment can be described thus: HCV replicon assay (luciferase, Huh-lucubineo-ET cells). The experiment is classed as cell-based. The following applies: Hepatitis C virus; tested at 25 μM; ET (Huh-lucubineo-ET) replicon cell line; luciferase activity measured 48-72 hours after compound addition; relative to no compound control. The method, then: A cell line, ET (Huh-lucubineo-ET) was used for screening of compounds for inhibiting HCV RNA dependent RNA polymerase. The ET cell line was stably transfected with RNA transcripts harboring a I389luc-ubi-neo/NS3-3′/ET; replicon with firefly luciferase-ubiquitin-neomycin phosphotransferase fusion protein and EMCV-IRES driven NS3-5B polyprotein containing the cell culture adaptive mutations (E1202G; T1280I; K1846T) (Krieger at al, 2001 and unpublished). The ET cells were grown in DMEM (Dulbeco's Modified Eagle's Medium), supplemented with 10% fetal calf serum, 2 mM Glutamine, Penicillin (100 IU/mL)/Streptomycin (100 μg/mL), 1× nonessential amino acids, and 250 μg/mL G418 (“Geneticin”). Reagents are all available through Life Technologies (Bethesda, Md.). The cells were plated at 0.5−1.0×10^4 cells/well in the 96 well plates and incubated for 24 hrs before adding test compound. The compounds were added to the cells to achieve a final concentration of 0.1 nM to 50 μM and a final DMSO (dimethylsulfoxide) concentration of 0.5%. Luciferase activity was measured 48-72 hours later by adding a lysis buffer and the substrate (Catalog number Glo-lysis buffer E2661 and Bright-Glo luciferase system E2620 Promega, Madison, Wis.). Cells should not be too confluent during the assay. Percent inhibition of replication data is plotted relative to no compound control. Under the same condition, cytotoxicity of the compounds were determined using cell proliferation reagent, WST-1 (Roche, Germany). The compounds showing antiviral activities, but no significant cytotoxicities were chosen to determine EC50 and TC50 the effective concentration and toxic concentration at which 50% of the maximum inhibition is observed. For these determinations, a 10 point, 2-fold serial dilution for each compound was used, which spans a concentration range of 1000 fold. EC50 and similarly TC50 values were calculated by fitting % inhibition at each concentration to the following equation: % inhibition=100%/[(EC50/[I])b+1] where b is Hill's coefficient.
(A replicon is a self-replicating genome or part of one, used to study replication in cells.)
Regarding `COc1ccc2c(c1)cc1n2CCCCn2c-1c(C1CCCCC1)c1ccc(C(=O)O)cc12` [Compound 233], the inhibition at 25 µM stood at 96%.
Under `O=C(O)c1ccc2c(C3CCCCC3)c3n(c2c1)CCCCn1c-3cc2ccc(O)cc21` [Compound 236] stands 100%; under `O=C(O)c1ccc2c(C3CCCCC3)c3n(c2c1)CCCCn1c-3cc2c(OCc3ccccc3)cccc21` [Compound 230], 75%.
Under `COc1ccc2cc3n(c2c1)CCCCn1c-3c(C2CCCCC2)c2ccc(C(=O)O)cc21` [Compound 235] stands 99%; under `O=C(O)c1ccc2c(C3CCCCC3)c3n(c2c1)CCCCn1c-3cc2ccccc21` [Compound 228], 97%; under `O=C(O)c1ccc2c(C3CCCCC3)c3n(c2c1)CCCCn1c-3cc2cc(OCc3ccccc3)ccc21` [Compound 231], 96%.
As for `O=C(O)c1ccc2c(C3CCCCC3)c3n(c2c1)CCCn1c-3cc2ccccc21` [Compound 227], the figure is 94%; as for `O=C(O)c1ccc2c(C3CCCCC3)c3n(c2c1)CCCCn1c-3nc2ccccc21` [Compound 226], 23%.
`O=C(O)c1ccc2c(C3CCCCC3)c3n(c2c1)CCCCn1c-3cc2cc(O)ccc21` [Compound 234] came in with an inhibition at 25 µM of 99%.
Under `O=C(O)c1ccc2c(C3CCCCC3)c3n(c2c1)CCCCCn1c-3cc2ccccc21` [Compound 229] stands 86%; under `O=C(O)c1ccc2c(C3CCCCC3)c3n(c2c1)CCCn1c-3nc2ccccc21` [Compound 225], 7%; under `O=C(O)c1ccc2c(C3CCCCC3)c3n(c2c1)CCCCn1c-3cc2ccc(OCc3ccccc3)cc21` [Compound 232], 91%.
Under `Cc1nc(C)c(-c2ccc3c4c(ccc3n2)-c2c(C3CCCCC3)c3ccc(C(=O)O)cc3n2CC(=O)N4)s1` [Compound 237] stands 100%.
